In ChEMBL document CHEMBL1201862, “PubChem BioAssay data set” (2004):
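Tested at 5 concentrations; 48 h exposure; 96-well plates; endpoints linearly interpolated, else capped at highest concentration. Abbreviation: GI50, concentration required for 50% inhibition of growth.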 The source made the active and inactive calls. Rule as the data show it: active = GI50 up to about 1.1 µM and inactive = higher.

Legend:
Assay in all cases: NCI-60 cell line screen, 48 h
[1] = system: RXF 393
[2] = system: SK-MEL-28
[3] = system: BT-549
[4] = system: UACC-257
[5] = system: SK-OV-3
[6] = system: NCI-H23
[7] = system: RPMI-8226
[8] = system: OVCAR-4
[9] = system: CCRF-CEM
[10] = system: HL-60
[11] = system: NCI-H460
[12] = system: SW-620
[13] = system: OVCAR-3
[14] = system: DU-145
[15] = system: Malme-3M
[16] = system: HCT-15
[17] = system: SNB-75
[18] = system: NCI-H522
[19] = system: PC-3

| SMILES | GI50 [1] | GI50 [2] | GI50 [3] | GI50 [4] | GI50 [5] | GI50 [6] | GI50 [7] | GI50 [8] | GI50 [9] | GI50 [10] | GI50 [11] | GI50 [12] | GI50 [13] | GI50 [14] | GI50 [15] | GI50 [16] | GI50 [17] | GI50 [18] | GI50 [19] |
| --- | --- | --- | --- | --- | --- | --- | --- | --- | --- | --- | --- | --- | --- | --- | --- | --- | --- | --- | --- |
| O=C(Nc1ccc(Cl)cc1)c1cc(S(=O)(=O)Nc2n[nH]c(=O)n2-c2ccccc2)c(S)cc1Cl | > 100 µM (inactive) | > 100 µM (inactive) | > 100 µM (inactive) | > 100 µM (inactive) | > 100 µM (inactive) | > 100 µM (inactive) | > 100 µM (inactive) | > 100 µM (inactive) | > 100 µM (inactive) | > 100 µM (inactive) | > 100 µM (inactive) | > 100 µM (inactive) | 6.28 µM (inactive) | > 100 µM (inactive) | > 100 µM (inactive) | > 100 µM | – | – | – |
| c1ccc(CC2COC(c3cccs3)=N2)cc1 (configuration not stated) | 24.5 µM (inactive) | > 100 µM (inactive) | 54.8 µM (inactive) | > 100 µM (inactive) | > 68.9 µM (inactive) | > 79.8 µM (inactive) | > 70.3 µM (inactive) | > 100 µM (inactive) | 38.1 µM (inactive) | 37.3 µM (inactive) | > 86.5 µM (inactive) | > 100 µM (inactive) | > 86.5 µM (inactive) | 42.1 µM (inactive) | > 100 µM (inactive) | 38.3 µM | 42.6 µM (inactive) | > 84.7 µM (inactive) | – |
| CC1(C)OCC(C(O)C2OC(C)(C)OC2C=O)O1 (configuration not stated) | – | > 100 µM (inactive) | – | > 100 µM (inactive) | > 100 µM (inactive) | > 100 µM (inactive) | > 100 µM (inactive) | > 100 µM (inactive) | > 100 µM (inactive) | – | – | > 100 µM (inactive) | > 100 µM (inactive) | > 100 µM (inactive) | > 100 µM (inactive) | > 100 µM | > 100 µM (inactive) | – | > 100 µM (inactive) |
| CS(=O)(=O)OCCn1c(=O)n(CCOS(C)(=O)=O)c(=O)n(CCOS(C)(=O)=O)c1=O | > 100 µM (inactive) | > 100 µM (inactive) | > 100 µM (inactive) | > 100 µM (inactive) | > 100 µM (inactive) | > 100 µM (inactive) | > 100 µM (inactive) | > 100 µM (inactive) | > 100 µM (inactive) | > 100 µM (inactive) | > 100 µM (inactive) | > 100 µM (inactive) | > 100 µM (inactive) | > 100 µM (inactive) | > 100 µM (inactive) | > 100 µM | > 100 µM (inactive) | – | – |
| CNC(=O)CNC(=O)CCC(=O)OC | > 100 µM (inactive) | > 100 µM (inactive) | – | – | > 100 µM (inactive) | > 100 µM (inactive) | – | > 100 µM (inactive) | – | – | > 100 µM (inactive) | > 100 µM (inactive) | > 100 µM (inactive) | > 100 µM (inactive) | – | – | – | 66.2 µM (inactive) | > 100 µM (inactive) |
| Fc1ccc2c3c([nH]c2c1)CCN(Cc1ccccc1)C3 | 16 µM (inactive) | 16.7 µM (inactive) | – | 15.3 µM (inactive) | 19.2 µM (inactive) | 20.9 µM (inactive) | 27.7 µM (inactive) | 24.6 µM (inactive) | 30.4 µM (inactive) | 17.3 µM (inactive) | 17.3 µM (inactive) | 20.1 µM (inactive) | – | 22.3 µM (inactive) | 18.4 µM (inactive) | 21.1 µM | 16.9 µM (inactive) | – | – |
| COc1ccc(S(=O)(=O)Nc2ccc(-c3csc(N4C(=O)/C(=C/c5ccccc5[N+](=O)[O-])N=C4c4ccccc4)n3)cc2)cc1Cl | 50.8 µM (inactive) | 98.2 µM (inactive) | – | 38.6 µM (inactive) | > 100 µM (inactive) | 20.8 µM (inactive) | – | 19.7 µM (inactive) | – | 23.2 µM (inactive) | 40.8 µM (inactive) | 46 µM (inactive) | 26 µM (inactive) | 83 µM (inactive) | 58.9 µM (inactive) | 29 µM | > 100 µM (inactive) | 35.9 µM (inactive) | 32.6 µM (inactive) |
| N#Cc1nc(C2SCCCS2)oc1N | – | > 100 µM (inactive) | – | > 100 µM (inactive) | > 100 µM (inactive) | – | 95.7 µM (inactive) | > 100 µM (inactive) | 64.3 µM (inactive) | > 100 µM (inactive) | – | > 100 µM (inactive) | – | > 100 µM (inactive) | – | > 100 µM | < 0.01 µM (active) | – | > 100 µM (inactive) |
| Oc1c(Cl)c(Cl)c(O)c(CCNc2nccs2)c1Cl | 7.23 µM (inactive) | 20.5 µM (inactive) | – | 20 µM (inactive) | 16.3 µM (inactive) | 18.4 µM (inactive) | – | 38.1 µM (inactive) | 3.74 µM (inactive) | 6.84 µM (inactive) | 20.8 µM (inactive) | 3.3 µM (inactive) | 9.35 µM (inactive) | 3.67 µM (inactive) | 27.4 µM (inactive) | 13.7 µM | 20.5 µM (inactive) | 2.02 µM (inactive) | 17.2 µM (inactive) |
| Cc1ccc2ccccc2c1NC1=NCCO1 | > 100 µM (inactive) | > 100 µM (inactive) | – | 57.3 µM (inactive) | > 100 µM (inactive) | 90.4 µM (inactive) | 36.2 µM (inactive) | 94.6 µM (inactive) | 70.3 µM (inactive) | 58.5 µM (inactive) | 33.7 µM (inactive) | > 100 µM (inactive) | – | > 100 µM (inactive) | > 100 µM (inactive) | > 100 µM | > 100 µM (inactive) | – | – |
| CCOC(=O)CCC(NC(=O)c1ccc(Nc2nc3ccc(C(F)(F)F)cc3nc2-c2ccccc2)cc1)C(=O)OCC (configuration not stated) | 49 µM (inactive) | 40.3 µM (inactive) | > 100 µM (inactive) | 17.5 µM (inactive) | – | 97.1 µM (inactive) | > 84.1 µM (inactive) | 34.2 µM (inactive) | 25.8 µM (inactive) | > 63.4 µM (inactive) | 56.6 µM (inactive) | > 100 µM (inactive) | 26.6 µM (inactive) | > 100 µM (inactive) | 23.1 µM (inactive) | > 100 µM | > 100 µM (inactive) | 22.1 µM (inactive) | – |
| CC(=O)CC1(C)OC(N)=C(C#N)C1(C#N)C#N (configuration not stated) | > 100 µM (inactive) | > 100 µM (inactive) | – | > 100 µM (inactive) | > 100 µM (inactive) | > 100 µM (inactive) | > 100 µM (inactive) | – | 44.7 µM (inactive) | – | – | > 100 µM (inactive) | – | > 100 µM (inactive) | 80 µM (inactive) | 43.9 µM | 47 µM (inactive) | 48.9 µM (inactive) | > 100 µM (inactive) |
| NCC#CCNCCCN1CC1 | – | > 100 µM (inactive) | – | > 100 µM (inactive) | > 100 µM (inactive) | > 100 µM (inactive) | 6.11 µM (inactive) | > 100 µM (inactive) | – | > 100 µM (inactive) | > 100 µM (inactive) | > 100 µM (inactive) | > 100 µM (inactive) | > 100 µM (inactive) | > 100 µM (inactive) | > 100 µM | < 0.01 µM (active) | > 100 µM (inactive) | > 100 µM (inactive) |
| COc1c(NC(C)=O)cc(C)cc1NC(C)=O | > 100 µM (inactive) | > 100 µM (inactive) | – | > 100 µM (inactive) | > 100 µM (inactive) | – | > 100 µM (inactive) | > 100 µM (inactive) | > 100 µM (inactive) | > 100 µM (inactive) | > 100 µM (inactive) | > 100 µM (inactive) | > 100 µM (inactive) | – | – | > 100 µM | > 100 µM (inactive) | > 100 µM (inactive) | – |
